13 molecules from US20160376240A1, “6 Phenyl or 6 Pyridin 3 YL Indazole Derivatives and Methods of Use” (ABBVIE INC., priority 2014, published 2016) can be followed below.

Structures are written as SMILES.

The target in this experiment is T1, TrkA (Homo sapiens, UniProt P04629).
T1 construct: purchased Invitrogen PV3144
The experiment is described as follows: TrkA kinase inhibition, HTRF assay. The experiment is classed as biochemical. Conditions: LCK peptide substrate 125 nM, TrkA 2-10 nM pre-incubated with ATP 200 μM. The procedure: TrkA, TrkB, and TrkC enzymes were obtained from Invitrogen (as catalog numbers PV3144, PV3616, and PV3617, respectively). The ability of a compound to inhibit the enzymatic activity of the TrkA, TrkB, and TrkC enzymes was determined in separate assays. Enzyme activity was measured in an HTRF® (homogeneous time resolved fluorescence) assay, which detects enzymatic phosphorylation of a biotinylated synthetic peptide substrate (an LCK peptide analog, biotin-ahx-GAEEEIYAAFFA, from Genemed Synthesis). Phosphorylation is assessed by HTRF® in the presence of an anti-phosphotyrosine antibody conjugated to Eu^3+ cryptate (Cisbio) as donor fluorophore, and streptavidin conjugated to allophycocyanin (ProZyme) as acceptor fluorophore. The HTRF® signal was detected at two different wavelengths (620 nm and 665 nm) which were used to calculate the fluorescence ratio.
Each enzyme was titrated to a concentration optimized to ensure accurate measurement of the initial reaction rate. To allow the Trk enzymes to undergo activation and auto-phosphorylation, a 20 minute pre-incubation with ATP was carried out (at twice the final targeted enzyme and ATP concentration) prior to addition of test compound and the peptide substrate.
TrkA in vitro assays were performed by pre-incubating TrkA (2-10 nM) with ATP (200 μM) for 20 minutes at ambient temperature in 50 mM HEPES pH 7.4, 10 mM MgCl2, 2 mM MnCl2, 100 μM Na3VO4, 1 mM dithiothreitol, 0.01% BSA (bovine serum albumin). Then, to the activated Trk enzyme mixture was added the test compound in 2% dimethyl sulfoxide. After 10 minutes, the peptide substrate (125 nM) was added. After 1 hour, enzyme reactions were terminated by addition of equal reaction volumes of detection/stop reagent (containing 0.2 μg/mL anti-phosphotyrosine monoclonal antibody labeled with europium from Cisbio (catalog# PT66-K), and 4 μg/mL PhycoLink® Streptavidin-Allophycocyanin conjugate from ProZyme (catalog# PJ25S) in 60 mM EDTA in 40 mM HEPES pH 7.4, 480 mM KF, 0.01% Tween® 20 and 0.1% BSA bovine serum albumin) Reaction plates were stored at 4° C. overnight before reading the fluorescence ratio signal on a PerkinElmer EnVision™ fluorescence detector. Individual reaction wells were stopped at time points to obtain reaction rates. The test inhibitor compounds were assayed in duplicate, at half-log serial dilutions over a range of concentrations (e.g. starting at 50 μM or 5 μM as the high compound concentration). The percent Trk enzyme inhibition was calculated from the initial rates of the inhibited reactions relative to the uninhibited control. IC50 values were calculated by fitting the inhibition percent to the concentration of inhibitor [I] in the assay in equation 1 below, to solve for the IC50.
Inhibition %=100[I]/([I]+[IC50]) equation 1
(In TR-FRET formats the signal depends on donor and acceptor labels being close together.)

T1 sequence (P04629 33-796): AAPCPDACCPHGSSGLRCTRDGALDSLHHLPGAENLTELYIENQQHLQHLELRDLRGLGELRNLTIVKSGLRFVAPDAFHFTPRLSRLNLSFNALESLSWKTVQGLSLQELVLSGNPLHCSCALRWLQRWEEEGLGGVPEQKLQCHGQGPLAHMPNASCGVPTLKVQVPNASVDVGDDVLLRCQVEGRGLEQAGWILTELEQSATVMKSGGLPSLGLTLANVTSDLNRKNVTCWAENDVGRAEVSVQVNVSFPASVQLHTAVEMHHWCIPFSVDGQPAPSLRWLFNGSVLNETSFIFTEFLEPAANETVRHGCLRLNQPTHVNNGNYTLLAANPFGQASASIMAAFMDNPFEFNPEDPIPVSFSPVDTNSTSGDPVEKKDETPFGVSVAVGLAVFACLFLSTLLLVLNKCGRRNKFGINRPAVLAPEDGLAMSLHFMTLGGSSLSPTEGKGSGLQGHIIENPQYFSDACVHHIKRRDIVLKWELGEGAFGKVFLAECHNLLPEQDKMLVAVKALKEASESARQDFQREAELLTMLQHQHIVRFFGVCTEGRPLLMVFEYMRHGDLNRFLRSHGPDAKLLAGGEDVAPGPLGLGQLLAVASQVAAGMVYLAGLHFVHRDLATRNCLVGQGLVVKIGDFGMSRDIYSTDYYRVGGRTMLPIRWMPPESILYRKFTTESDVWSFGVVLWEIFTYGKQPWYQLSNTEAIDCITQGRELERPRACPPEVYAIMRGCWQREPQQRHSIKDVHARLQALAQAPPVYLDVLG

The IC50 is the concentration that inhibits the measured activity by half. High values mean weaker potency, low ones greater potency. As for `CC(=O)c1ccc(-c2cc(OC3CCOCC3)c3c(N)n[nH]c3c2)cc1N1CCN(c2ncccn2)CC1` [Example 15, 1-{4-[3-amino-4-(tetrahydro-2H-pyran-4-yloxy)-1H-indazol-6-yl]-2-[4-(pyrimidin-2-yl)piperazin-1-yl]phenyl}ethanone], half-maximal inhibition (IC50) required 9.59 nM.

Consider `CNC(=O)c1ccc(-c2cc(O[C@H](C)C(F)(F)F)c3c(N)n[nH]c3c2)cc1N1CCN(c2ncccn2)CC1` [Example 52, 4-(3-amino-4-{[(2R)-1,1,1-trifluoropropan-2-yl]oxy}-1H-indazol-6-yl)-N-methyl-2-[4-(pyrimidin-2-yl)piperazin-1-yl]benzamide], for which the IC50 stood at 27.2 nM.

In turn, `NC(=O)c1ccc(-c2ccc3c(N)n[nH]c3c2)cc1N1CCN(CC(=O)N2CCCC2)CC1` [Example 83, 4-(3-amino-1H-indazol-6-yl)-2-{4-[2-oxo-2-(pyrrolidin-1-yl)ethyl]piperazin-1-yl}benzamide] came in with an IC50 of 8330 nM.

In turn, `CN1CCC(Oc2cc(-c3ccc(C(=O)NC4CC4)c(N4CCN(c5ccccc5)CC4)c3)cc3[nH]nc(N)c23)CC1` [Example 62, 4-{3-amino-4-[(1-methylpiperidin-4-yl)oxy]-1H-indazol-6-yl}-N-cyclopropyl-2-(4-phenylpiperazin-1-yl)benzamide] yielded an IC50 of 67.1 nM.

Molecule `CNC(=O)c1ccc(-c2cc(O[C@H](C)C(F)(F)F)c3c(N)n[nH]c3c2)cc1N1CCOC(CC(C)C)C1` (stereo partly drawn) [Example 58, 4-(3-amino-4-{[(2R)-1,1,1-trifluoropropan-2-yl]oxy}-1H-indazol-6-yl)-2-(2-isobutylmorpholin-4-yl)-N-methylbenzamide] had an IC50 of 673 nM.

For the molecule `NC(=O)c1ccc(-c2cc(OC3CCCC3)c3c(N)n[nH]c3c2)cc1N1CCC(c2ccccc2)CC1` [Example 76, 4-[3-amino-4-(cyclopentyloxy)-1H-indazol-6-yl]-2-(4-phenylpiperidin-1-yl)benzamide], the half-maximal inhibitory concentration (IC50) stood at 24.5 nM.

The molecule `CC(=O)N1CCN(c2cc(-c3cc(OC(C)C(F)(F)F)c4c(N)n[nH]c4c3)ccc2C(N)=O)CC1` (stereo not shown) [Example 96, 2-(4-acetylpiperazin-1-yl)-4-{3-amino-4-[(1,1,1-trifluoropropan-2-yl)oxy]-1H-indazol-6-yl}benzamide] came in with an IC50 of 89.2 nM.

Take `CNC(=O)c1ccc(-c2cc(OC3CCOCC3)c3c(N)n[nH]c3c2)cc1N1CCNCC1` [Example 112, 4-[3-amino-4-(tetrahydro-2H-pyran-4-yloxy)-1H-indazol-6-yl]-N-methyl-2-(piperazin-1-yl)benzamide]: the IC50 amounted to 7.11 nM.

With `CNC(=O)c1ccc(-c2cc(OC3CCOCC3)c3c(C)n[nH]c3c2)cc1N1CCN(Cc2cccc(F)c2)CC1` [Example 154, 2-[4-(3-fluorobenzyl)piperazin-1-yl]-N-methyl-4-[3-methyl-4-(tetrahydro-2H-pyran-4-yloxy)-1H-indazol-6-yl]benzamide], the IC50 came out at 15.9 nM.

Regarding `CNC(=O)c1ccc(-c2cc(O[C@H](C)C(F)(F)F)c3c(N)n[nH]c3c2)cc1N1CCC(O)(c2ccccc2)CC1` [Example 60, 4-(3-amino-4-{[(2R)-1,1,1-trifluoropropan-2-yl]oxy}-1H-indazol-6-yl)-2-(4-hydroxy-4-phenylpiperidin-1-yl)-N-methylbenzamide], half-maximal inhibition (IC50) required 223 nM.

`NC(=O)c1ccc(-c2cc(OC3CCOCC3)c3c(N)n[nH]c3c2)cc1N1CCN(c2cncc(Cl)c2)CC1` [Example 8, 4-[3-amino-4-(tetrahydro-2H-pyran-4-yloxy)-1H-indazol-6-yl]-2-[4-(5-chloropyridin-3-yl)piperazin-1-yl]benzamide] yielded an IC50 of 4.42 nM. This IC50 is about 50-fold lower than that of the molecule before.

In turn, `NC(=O)c1ccc(-c2ccc3c(N)n[nH]c3c2)cc1N1CCN(C2CCCCC2)CC1` [Example 85, 4-(3-amino-1H-indazol-6-yl)-2-(4-cyclohexylpiperazin-1-yl)benzamide] registered an IC50 of 2240 nM.

Consider `NC(=O)c1ccc(-c2ccc3c(N)n[nH]c3c2)cc1N1CCN(C2CC2)CC1` [Example 88, 4-(3-amino-1H-indazol-6-yl)-2-(4-cyclopropylpiperazin-1-yl)benzamide], for which 8440 nM corresponded to half-maximal inhibition (IC50).
